Results: US20210236513A1, “NOVEL USES” (ZARODEX THERAPEUTICS LIMITED, priority 2018, published 2021)

Experiments:
[1] = test system: bone marrow B cell subsets; assay: Wild type mouse study, bone marrow B cell immunophenotyping by flow cytometry
[2] = test system: B220+ B cells, plasma cells, germinal centre B cells; assay: CIA model, B cell subsets in spleen and lymph nodes by FACS; assay type: in vivo, DBA/1 mice
[3] = test system: serum/plasma IgG, IgA, IgM; settings: cited from earlier work
[4] = Michel et al., 2015; cited from earlier work
[5] = test system: treatment-resistant schizophrenia; settings: schizophrenic patients; cited from earlier work
[6] = test system: collagen-induced arthritis; assay: Collagen-induced arthritis (CIA) model, onset, clinical score and paw-swelling; assay type: in vivo, DBA/1 mice
Excerpt: Adult (age 13-15 weeks) DBA/1 male mice were purchased from Envigo (Horst, Netherlands). […] 1. […] All experiments were approved by the Clinical Medicine Animal Welfare and Ethical Review Body (AWERB) and by the UK Home Office. DBA/1 mice were immunised with bovine type II collagen in CFA and monitored daily for onset of arthritis. […] Controls received vehicle (saline) alone. Treatment of mice commenced in one experiment on day 1 after immunisation and in a second experiment on day 15 after immunisation. Clinical scores and paw-swelling were monitored for 10 days following onset of arthritis. A clinical scoring system was used as follows. Arthritis severity was scored by an experienced, non-blinded investigator as follows: 0=normal, 1=slight swelling and/or erythema, 2=pronounced swelling, 3=ankylosis. […] Data were analyzed by one-way ANOVA with Tukey's or Dunnett's multiple comparison test or two-way ANOVA with Tukey's multiple comparison test as appropriate. All calculations were made using GraphPad Prism software.

[7] = test system: T follicular helper cells (CD4+ PD1+ CXCR5+); assay: CIA model, T follicular helper cells by FACS; assay type: in vivo, DBA/1 mice
[8] = test system: total peripheral blood B-cells from healthy donors differentiating to plasmablasts and plasma cells
[9] = test system: splenic B cell and T cell populations; assay: Wild type mouse study, spleen immunophenotyping by flow cytometry
serum IgG, IgA and IgM = assay: Serum immunoglobulins in clozapine patients referred to Immunology clinic; assay type: in vivo, human
[10] = test system: IgG to Haemophilus influenza B, Pneumococcus and Tetanus; settings: human, in vivo
[11] = Infection questionnaire, antibiotic courses and hospital admissions, same case control study; assay type: in vivo, human
[12] = test system: class switched memory B cells, plasmablasts and other B cell subsets
[13] = test system: specific antibody levels against Haemophilus B (Hib), Tetanus and Pneumococcus; parameters: species or system human; settings: in vivo
[14] = test system: circulating B cell subsets; assay: Second observational study (interim), peripheral blood B cell subsets by FACS; assay type: in vivo, human; settings: interim analysis
[15] = test system: circulating total IgG, IgA, IgM and pneumococcal-specific IgG; assay: Second observational study (interim), circulating immunoglobulins; assay type: in vivo, human; settings: interim analysis
[16] = test system: Immunoglobulin levels (IgG, IgA and IgM); assay: Serum immunoglobulin levels by nephelometry, cross-sectional case control study of clozapine-treated vs clozapine-naive patients; assay type: in vivo, human
[17] = test system: anti-type II collagen IgG1 and IgG2a; assay: CIA model, anti-collagen immunoglobulin by ELISA; assay type: in vivo, DBA/1 mice
[18] = Wild type mouse study, body weight; assay type: in vivo, C57BL/6 mice; settings: 5 mg/kg and 10 mg/kg IP once daily; maximal by 3 days, recovering fully to baseline by day 9
CD20 = target: T1, CD20 (Homo sapiens, UniProt P11836); settings: Arnold et al., 2017; Khellaf et al., 2014; cited from earlier work
T1 construct: host or cells: B cells of patients in vivo
T1 sequence (P11836 1-297): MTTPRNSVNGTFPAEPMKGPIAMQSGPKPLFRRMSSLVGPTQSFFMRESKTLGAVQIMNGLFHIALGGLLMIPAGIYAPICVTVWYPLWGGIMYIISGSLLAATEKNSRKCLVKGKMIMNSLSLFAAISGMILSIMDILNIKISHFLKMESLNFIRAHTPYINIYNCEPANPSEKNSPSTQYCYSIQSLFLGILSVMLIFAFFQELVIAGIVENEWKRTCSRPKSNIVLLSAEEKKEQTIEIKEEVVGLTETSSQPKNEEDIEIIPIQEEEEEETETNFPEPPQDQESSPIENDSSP

[19] = 10 mg/kg clozapine IP, 21 days, FIG. 18
[20] = outpatients on clozapine for at least five years (Lozano et al., 2016)
[21] = six weeks treatment (Hinze-Selch et al., 1998)
[22] = clozapine-treated patients post-exclusion, n=94
[23] = number of admissions, clozapine-treated patients
[24] = FIG. 3B, referred clozapine patients

Compound: CN1CCN(C2=Nc3cc(Cl)ccc3Nc3ccccc32)CC1 [Clozapine, clozapine]
- Pro-B cell fraction in bone marrow [1, 19]: without any change
- Proportion of pre-pro B cells in bone marrow [1, 19]: significant increase
- Percentage of immature B cells in bone marrow ([1]; FIG. 19): reduction
- Overall B cells in the bone marrow ([1]; any dose of clozapine (2.5, 5, 10 mg/kg IP, 21 days), FIG. 18): No overall reduction
- Pre-B cells in bone marrow ([1]; dose-dependent, significant vs control even at 2.5 mg/kg, FIG. 19): reduction
- Percentage of proliferating pre-B cells in bone marrow ([1]; reaching significance for the 5 mg/kg dose, FIG. 19): diminished
- Proportion of plasma cells in spleen ([2]; 10 mg/kg clozapine given on day 1, FIG. 30): significant reduction
- Proportion of B220+ B cells in spleen ([2]; 10 mg/kg from day 1): significantly reduced
- Level of GL7 expression on follicular B cells in lymph node ([2]; all clozapine treatment groups vs vehicle, FIG. 32): significantly decreased
- Percentage of B220+ B cells in lymph nodes ([2]; all doses and time points (5 or 10 mg/kg from day 1 or day 15), FIG. 29): significantly lower percentage
- Lymph node follicular B cells (B220+IgD-Fas+GL7hi) ([2]; all doses/both time points, FIG. 31): Strikingly significant reductions
- IgA, IgG, absolute neutrophil count and white blood cell count vs control group [3, 20]: no differences were found
- Mean plasma levels of IgM vs control group [3, 20]: overall decrease
- IgA or IgM concentrations, pattern of autoantibodies [3, 21]: no significant effect
- Serum concentrations of IgG [3, 21]: significant increases
- CNS penetration [4]: high levels of CNS penetration
- Previously treatment refractive patients in whom effective [5]: approximately 60%
- Swelling of the first affected paw ([6]; 10 mg/kg clozapine from day 1, FIG. 27): reduced swelling of the first affected paw
- Arthritis onset ([6]; both doses of clozapine (5, 10 mg/kg) from day 1): extremely effective in delaying arthritis onset
- Overall clinical score ([6]; both doses, administered on day 1, FIG. 27): reduced overall clinical score
- Onset of arthritis post-immunisation ([6]; clozapine 5 or 10 mg/kg IP daily from day 1 or day 15, FIGS. 25 and 26): significantly effective in delaying the onset
- Incidence of CIA ([6]; most apparent when dosed just after CII immunisation, FIG. 26): reduces the incidence
- Total number of affected paws compared to vehicle control ([6]; significant with dosing at D1, FIG. 28): reduced the total number of affected paws
- Proportions of CD4+PD1+CXCR5+ T follicular helper cells in lymph node or spleen ([7]; 5 or 10 mg/kg from day 1 or day 15, FIG. 34): did not significantly affect
- Expression of PD-1 in lymph node T follicular helper cells (MFI) ([7]; all doses and time points, FIG. 35): Reduced expression of PD-1
- CXCR5 expression on T follicular helper cells (MFI) ([7]; dosed from day 1, lymph node and spleen, FIG. 36): significant reductions
- Expression of CCR7 on germinal centre resident T follicular helper cells ([7]; lymph node and spleen, FIG. 37): reduction in expression of CCR7
- Direct toxicity to differentiating B-cells [8]: no direct toxicity effect
- Activated T cells (B220+TCR-β+) in spleen compared to control ([9]; FIG. 21): reduced in dose-dependent fashion
- Other splenic cell populations (B220-TCR-β-) ([9]; FIG. 21): No effect
- Percentage of splenic T cells (B220-TCR-β+) ([9]; FIG. 21): reciprocal increase
- Splenic follicular B cell subset ([9]; FIG. 22): no specific reductions
- Splenic marginal zone B cell subset ([9]; FIG. 22): no specific reductions
- Proportion of T2 B cells in the spleen ([9]; across all doses of clozapine, FIG. 22): small increase
- Percentage of splenic B cells (B220+TCR-β-) of total live splenocytes ([9]; clozapine at 5 mg/kg and 10 mg/kg, FIG. 21): significantly lower percentage
- Proportion of transitional stage 1 (T1) B cells in the spleen ([9]; including at the 2.5 mg/kg dose, FIG. 22): mildly reduced proportion
- Germinal centre cells in the spleen versus control or haloperidol ([9]; steady state, FIG. 22): no differences observed
- Serum IgA after clozapine was stopped (serum IgG, IgA and IgM; one patient, after 24 months): 0.29 g/L
- Serum IgM after clozapine was stopped (serum IgG, IgA and IgM; one patient, after 24 months): 0.49 g/L
- Mean IgA (serum IgG, IgA and IgM; referred clozapine patients): 0.34 g/L
- Mean IgG (serum IgG, IgA and IgM; referred clozapine patients): 3.6 g/L
- Mean IgM (serum IgG, IgA and IgM; referred clozapine patients): 0.21 g/L
- Individuals failing to develop an IgG response above ≥50 mg/L [10]: 73%
- Individuals failing to mount a Haemophilus-IgG response ≥1 mcg/ml [10]: 42%
- Patients with IgG to Haemophilus influenza B (HiB) <1 mcg/ml at initial assessment [10]: 75%
- Patients with Pneumococcus-IgG <50 mg/L at initial assessment [10]: 94%
- Patients with Tetanus-IgG <0.1 IU/mL at initial assessment [10]: 38%
- Vaccine response of individual referred patient [10]: Failure to responds to
- Admitted to hospital with infection ([11]; clozapine group vs 0.06 in controls): 0.12 per patient year
- Antibiotic courses per year: 1-5 courses, percentage of patients [11, 22]: 33.0%
- Antibiotic courses per year: >5 courses, percentage of patients [11, 22]: 5.3%
- Antibiotic courses per year: nil courses, percentage of patients [11, 22]: 61.7%
- Antibiotic courses per year: >5 courses, percentage of patients ([11]; clozapine-treated patients post-exclusion, n=94, listed as clozapine): 5.3%
- Admission frequency in 12-month period, all cause [11, 23]: 21
- Admission frequency in 12-month period, infection-related [11, 23]: 15
- CSMB vs healthy controls [12, 24]: significant reduction
- Marginal zone B cell numbers vs healthy control [12, 24]: no significant difference
- Total B cell numbers vs CVID and healthy controls [12, 24]: similar
- Overall lymphopenia or B cell lymphopenia ([12]; human, in vivo): no severe overall lymphopenia or B cell lymphopenia
- IgM-Pneumococcus, mean (SEM in the line below) [13]: 58.5 U/L
- Overall CD19+ B cell numbers vs clozapine naive ([14]; FIG. 8A-B): not significantly different
- Naive (CD19+ CD27-) B cells as a proportion of total CD19+ B cells ([14]; FIG. 9A-C): Small increase
- Overall memory B cell pool ([14]; FIG. 10A-C): without perturbation
- IgMhi IgDlo memory B cell subpopulation ([14]; FIG. 12A-C): without perturbation
- Circulating levels of transitional B cells ([14]; FIG. 13A-C): No significant difference
- Circulating levels of marginal zone B cells ([14]; FIG. 14A-C): No significant difference
- Class-switched memory B cells (CD27+ IgM- IgD- as % B) ([14]; P=0.06 vs control, FIG. 11A-C): Strong trends to a specific reduction
- Levels of plasmablasts ([14]; P=0.07 vs control clozapine naive, FIG. 15A-C): Strong trends to reduction
- Levels of circulating total IgG, IgA and IgM vs clozapine naive ([15]; FIG. 6A-C): Significantly reduced
- IgG antibodies against pneumococcus vs clozapine naive ([15]; FIG. 7): trend to lower
- Concentrations of IgG, IgA and IgM vs clozapine-naive control group ([16]; human, in vivo): significantly reduced
- Effect of duration of clozapine therapy on serum IgG ([16]; p 0.014, FIG. 2, not observed in clozapine-naive patients): associated with lower serum IgG levels
- Reduction of anti-type II collagen IgG1 ([17]; 10 mg/kg from day 15, FIG. 33): reaching statistical significance
- Serum anti-type II collagen IgG2a ([17]; 5 or 10 mg/kg from day 1 or day 15, single time point, FIG. 33): no significant impact
- Levels of anti-type II collagen IgG1 ([17]; across all doses tested, FIG. 33): nominal reductions
- Body weight [18]: transient fall in body weight

Compound: O=C(CCCN1CCC(O)(c2ccc(Cl)cc2)CC1)c1ccc(F)cc1 [Haloperidol, haloperidol]
- Activated T cells (B220+TCR-β+) in spleen compared to control ([9]; FIG. 21): also modestly apparent

Compound: Clc1ccc2c(c1)N=C(N1CCNCC1)c1ccccc1N2 [Norclozapine, norclozapine]
- Direct toxicity to differentiating B-cells [8]: no direct toxicity effect

Compound: rituximab
- Patients with ITP in whom platelet count improved (CD20): ~60%
